Assay results reported in ChEMBL document CHEMBL1201862, “PubChem BioAssay data set” (2004).
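The compound was tested at five concentrations on cells cultured in 96-well plates, with a 48-hour exposure period. Abbreviation: GI50, concentration required for 50% inhibition of growth.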 Active and inactive are the calls of the source. Rule as the data show it: active = GI50 up to about 1.1 µM and inactive = higher. Where a SMILES comes first, the peptide text is derived from it. [ ]: non-standard residue; d: D form. The star is where a group is joined. ξ: configuration not given here. NMeF = CN[C@@H](Cc1ccccc1)C(=O)O; NMeV = CN[C@H](C(=O)O)C(C)C; ξNMeN = CNC(CC(N)=O)C(=O)O; NMeA = CN[C@@H](C)C(=O)O; ξNMeV = CNC(C(=O)O)C(C)C; Boc = CC(C)(C)OC(=O)*

How the values were obtained:
Assay in all cases: inhibition of tumour cell growth, NCI panel, 48 h
HOP-18 = test system: HOP-18
XF498 = test system: XF498
KM-20L2 = test system: KM-20L2
DMS-273 = test system: DMS-273
DLD-1 = test system: DLD-1
SNB-78 = test system: SNB-78
LXFL 529 = test system: LXFL 529
DMS-114 = test system: DMS-114
RXF 631 = test system: RXF 631

Compound | GI50 (HOP-18) | GI50 (XF498) | GI50 (KM-20L2) | GI50 (DMS-273) | GI50 (DLD-1) | GI50 (SNB-78) | GI50 (LXFL 529) | GI50 (DMS-114) | GI50 (RXF 631)
COc1ccc(CCNCCCC2c3ccccc3-c3ccccc32)cc1OC | 16.8 µM (inactive) | 14.7 µM (inactive) | 3.45 µM (inactive) | 7.28 µM (inactive) | 16.1 µM (inactive) | 15.7 µM (inactive) | 14.1 µM (inactive) | 7.48 µM (inactive) | 
Oc1cc(C2OCCCO2)cc(O)c1O | > 100 µM (inactive) |  | > 100 µM (inactive) | > 100 µM (inactive) | > 100 µM (inactive) | > 100 µM (inactive) | > 100 µM (inactive) | > 100 µM (inactive) | > 100 µM (inactive)
COc1ccccc1/N=N/C(C(=O)c1ccccc1)C(=O)c1ccccc1 |  | 19.5 µM (inactive) | 26.3 µM (inactive) | 16.4 µM (inactive) | 17.6 µM (inactive) |  | 15.5 µM (inactive) | 15.2 µM (inactive) | 
C[Si](C)(C)C(CCCCSc1ccccc1)(Sc1ccccc1)Sc1ccccc1 |  | > 100 µM (inactive) | > 10 µM (inactive) | > 100 µM (inactive) | > 100 µM (inactive) | > 100 µM (inactive) | 78.2 µM (inactive) | > 100 µM (inactive) | > 100 µM (inactive)
CC(=O)NC(CC(C)C)C(=O)NC(Cc1ccccc1)C(=S)N1CCCC1 (configuration not stated) |  | > 100 µM (inactive) | > 100 µM (inactive) | > 100 µM (inactive) |  |  | > 100 µM (inactive) | > 100 µM (inactive) | > 100 µM (inactive)
CCOC(=O)C1=C(Nc2ccc(Br)cc2)OC/C1=N\NC(=O)c1ccccc1O | 70.5 µM (inactive) |  | > 60 µM (inactive) | 4.69 µM (inactive) | 18 µM (inactive) | 7.93 µM (inactive) | 14.5 µM (inactive) |  | 
COC(=O)C1C=CCC2CCCCC21N1CCCC1 (configuration not stated) | > 100 µM (inactive) |  | 83.2 µM (inactive) | > 100 µM (inactive) | > 100 µM (inactive) | > 100 µM (inactive) | 81.5 µM (inactive) | 36.1 µM (inactive) | > 100 µM (inactive)
O=C(NC1C=Nc2ccccc2NC1=O)c1ccccc1Cl (configuration not stated) | 48 µM (inactive) | 22.2 µM (inactive) | 55.6 µM (inactive) | 26.8 µM (inactive) | 59.2 µM (inactive) | 93.1 µM (inactive) | 28.6 µM (inactive) | 16.1 µM (inactive) | 22 µM (inactive)
Oc1cc(-c2ccccc2)c2ccccc2n1 | 23.6 µM (inactive) |  |  | 60.5 µM (inactive) | 56 µM (inactive) |  | 34.2 µM (inactive) | 12.7 µM (inactive) | 
CCCCCCCCCCCCC(CCCCCCCCCCCC)OP(=O)(O)O | > 100 µM (inactive) | > 100 µM (inactive) | > 100 µM (inactive) | > 100 µM (inactive) | > 100 µM (inactive) | > 100 µM (inactive) | > 100 µM (inactive) | > 100 µM (inactive) | 94.4 µM (inactive)
CCOc1ccc(NC(=O)CC2SC(Nc3ccc(C)cc3C)=NC2=O)cc1 (configuration not stated) |  | 50.4 µM (inactive) | > 100 µM (inactive) | > 100 µM (inactive) | > 100 µM (inactive) | > 100 µM (inactive) | 66.2 µM (inactive) |  | 
CCOC(=O)[C@H](CCCNC(=O)OC(C)(C)C)NCc1ccc(OC)c(OC)c1 | > 100 µM (inactive) | > 100 µM (inactive) | > 100 µM (inactive) | > 100 µM (inactive) | > 100 µM (inactive) |  | > 100 µM (inactive) | > 100 µM (inactive) | > 100 µM (inactive)
CC(C)NC(C)Cc1ccccc1 (configuration not stated) | > 100 µM (inactive) |  | > 100 µM (inactive) | > 100 µM (inactive) | > 100 µM (inactive) | > 100 µM (inactive) | > 100 µM (inactive) | > 100 µM (inactive) | > 100 µM (inactive)
COC(=O)/C(C)=C(/CCC1(C)OCCO1)O[Si](C)(C)C | > 100 µM (inactive) | > 100 µM (inactive) | > 100 µM (inactive) | > 100 µM (inactive) | > 100 µM (inactive) | > 100 µM (inactive) | > 100 µM (inactive) | > 100 µM (inactive) | 
N#CC(NNC(=O)Cc1ccccc1)c1ccc(O)cc1 (configuration not stated) | > 100 µM (inactive) |  |  | > 100 µM (inactive) | > 100 µM (inactive) |  | > 100 µM (inactive) | > 100 µM (inactive) | 
CCOC(=O)C1(C)C2=CC=C(O2)C(C)(C)C2=CC=C(O2)C(C)(C)C2=CC=C(O2)C(C)(C)C2=CC=C1O2 | > 100 µM (inactive) | > 100 µM (inactive) | > 100 µM (inactive) | > 100 µM (inactive) |  | > 100 µM (inactive) | > 100 µM (inactive) |  | > 100 µM (inactive)

Compound | GI50 (HOP-18) | GI50 (XF498) | GI50 (KM-20L2) | GI50 (DMS-273) | GI50 (DLD-1) | GI50 (SNB-78) | GI50 (LXFL 529) | GI50 (DMS-114) | GI50 (RXF 631)
CCC(=O)N/N=C(\C=C\c1cccc(O)c1)c1sc(Nc2ccc(C)cc2[N+](=O)[O-])nc1C | > 100 µM (inactive) |  | > 100 µM (inactive) | > 100 µM (inactive) | 43.6 µM (inactive) | > 100 µM (inactive) | > 100 µM (inactive) | > 100 µM (inactive) | 
[N-]=[N+]=Nc1ccc(CCN2CCN(c3cccc(C(F)(F)F)c3)CC2)cc1I |  |  | 31.3 µM (inactive) | 72.6 µM (inactive) |  | > 100 µM (inactive) | 50 µM (inactive) |  | 
O=C(O)c1ccc(S(=O)(=O)c2ccccc2)c([N+](=O)[O-])c1 | > 100 µM (inactive) |  | > 100 µM (inactive) | 63.8 µM (inactive) | > 100 µM (inactive) | > 100 µM (inactive) | > 100 µM (inactive) | > 100 µM (inactive) | 
COc1ccccc1/C=C1\CCC(CN(C)C)C1=O (configuration not stated) | 22.9 µM (inactive) | 18.3 µM (inactive) | 4.24 µM (inactive) | 6.9 µM (inactive) | 2.2 µM (inactive) | 9.4 µM (inactive) |  | 2.75 µM (inactive) | 
O=C(CC(=O)Nc1ccc(Cl)cc1)NNCC(=O)Nc1nc(-c2ccccc2)cs1 | > 100 µM (inactive) | > 100 µM (inactive) | 59.6 µM (inactive) | > 100 µM (inactive) | > 100 µM (inactive) | > 100 µM (inactive) | 75.7 µM (inactive) | > 100 µM (inactive) | 
CC(C)(C)c1ccc(OC2CCO2)cc1 (configuration not stated) | > 100 µM (inactive) |  | 19.5 µM (inactive) | 34.4 µM (inactive) |  | 49.9 µM (inactive) | 54.6 µM (inactive) | 39.5 µM (inactive) | 
COC(=O)C1CCc2c1c(=O)n1c([nH]c3ccccc31)c2C#N (configuration not stated) | 2.36 µM (inactive) | > 100 µM (inactive) | > 100 µM (inactive) | > 100 µM (inactive) | > 100 µM (inactive) | > 100 µM (inactive) | > 100 µM (inactive) | > 100 µM (inactive) | 
CCOc1ccc(/N=C(/NC(=O)c2ccccc2)SC)cc1 | > 100 µM (inactive) |  | > 100 µM (inactive) | > 100 µM (inactive) | > 100 µM (inactive) | > 100 µM (inactive) | > 100 µM (inactive) | > 100 µM (inactive) | 
C[C@H]1C/C=C/[C@H]2[C@@H]3O[C@]3(C)[C@@H](C)[C@H]3[C@H](Cc4ccccc4)NC(=O)[C@]32OC(=O)O/C=C/[C@@](C)(O)C1=O [CYTOCHALASIN E] |  | 0.0183 µM (active) | 0.0248 µM (active) | 0.091 µM (active) |  | 0.0189 µM (active) |  | 0.0548 µM (active) | 
CCCCc1c2c(nc3c1CCC/C3=C\c1ccccc1)/C(=C/c1ccccc1)CCC2 |  | > 100 µM (inactive) | > 100 µM (inactive) | > 100 µM (inactive) |  |  | > 100 µM (inactive) | > 100 µM (inactive) | 
COC(=O)[C@H](C)N(C)C(=O)C(CC(N)=O)N(C)C(=O)[C@H](Cc1ccccc1)N(C)C(=O)[C@@H]1CCCN1C(=O)[C@H](C(C)C)N(C)C(=O)C(C(C)C)N(C)C(=O)[C@@H](NC(=O)OC(C)(C)C)C(C)C (some centres not stated) (Boc-V[ξNMeV][NMeV]P[NMeF][ξNMeN][NMeA]-OMe) |  | 26.7 µM (inactive) | 39.2 µM (inactive) | 55.5 µM (inactive) | 43.7 µM (inactive) | 50.6 µM (inactive) | 24.2 µM (inactive) | 16.8 µM (inactive) | 
O=[N+]([O-])c1ccc(/C=N/C2CCCCC2)cc1 | > 100 µM (inactive) | > 100 µM (inactive) | > 100 µM (inactive) | > 100 µM (inactive) | > 100 µM (inactive) | > 100 µM (inactive) |  | > 100 µM (inactive) | > 100 µM (inactive)
COc1ccc2c(c1)c1c3n2CCNN=C3CCC1 | > 100 µM (inactive) | > 100 µM (inactive) | > 100 µM (inactive) | > 100 µM (inactive) | > 100 µM (inactive) | > 37.7 µM (inactive) | > 100 µM (inactive) | 74.6 µM (inactive) | 68.4 µM (inactive)
C#CCN(C(=O)C(F)(F)F)c1ccc(C(=O)c2ccc(N(CC#C)C(=O)C(F)(F)F)cc2)cc1 |  |  | > 100 µM (inactive) | 24.1 µM (inactive) | 37.6 µM (inactive) | 52.4 µM (inactive) | 27.7 µM (inactive) | 20.7 µM (inactive) | 
Cc1ccc(C)c2sc3cc(=O)ccc-3nc12 | > 100 µM (inactive) |  | 73.3 µM (inactive) | 39.2 µM (inactive) | 45.9 µM (inactive) | > 100 µM (inactive) | 37.7 µM (inactive) | 30.5 µM (inactive) | 92.9 µM (inactive)
